Measured values from patent US20260000708A1, “Copper Hydrogel Beads as a Diet Supplement” (Texas Tech University System, priority 2021, published 2026).

System: Salmonella
Assay: Time-release formulation compared to copper sulfate alone against Salmonella cells in vitro
Assay type: cell-based
Settings: after application (FIG. 3)

With O=S(=O)([O-])[O-].[Cu+2] [copper sulfate] as the molecule, how does the “Duration of effectiveness against Salmonella” value read?
The value was “only effective for a short time”.
